# Assays:
# [1] = Stability of the radiopharmaceutical post-labelling (radiochemical purity); format: physicochemical; conditions: for more than 7 days post-labelling
# Method: After reconstitution in 1.1 mL sodium acetate 1 M buffer solution pH 5.0 containing the sterile and pyrogen-free solution of lutetium-177 chloride (^177LuCl3) and incubation in a dry bath at 95° C. for 30 minutes, said formulation gave a clear, aqueous solution of the compound to be patented ^177Lu-DOTA-HYNIC-iPSMA (FIG. 1) with a radiochemical purity of more than 98%, as determined by reverse-phase HPLC, which presents the radio-chromatogram shown in FIG. 3.
# (§1) The radiopharmaceutical remains stable, with a radiochemical purity of more than 98% for more than 7 days post-labelling. In vitro stability tests in human serum show a serum protein binding of 6.5±1.8% and a high radiochemical stability (>98%).
# [2] = In vitro stability tests in human serum; format: in vitro ADME
# Text: as §1
# protein PSMA = biological target: T1, protein PSMA (Homo sapiens, UniProt Q04609); assay: Saturation studies in cancer cells positive for the protein PSMA (LNCaP); format: binding
# T1 construct: saturation studies in cancer cells positive for the protein PSMA (LNCaP); endogenous in cells; host or cells: LNCaP
# T1 sequence (Q04609 whole entry): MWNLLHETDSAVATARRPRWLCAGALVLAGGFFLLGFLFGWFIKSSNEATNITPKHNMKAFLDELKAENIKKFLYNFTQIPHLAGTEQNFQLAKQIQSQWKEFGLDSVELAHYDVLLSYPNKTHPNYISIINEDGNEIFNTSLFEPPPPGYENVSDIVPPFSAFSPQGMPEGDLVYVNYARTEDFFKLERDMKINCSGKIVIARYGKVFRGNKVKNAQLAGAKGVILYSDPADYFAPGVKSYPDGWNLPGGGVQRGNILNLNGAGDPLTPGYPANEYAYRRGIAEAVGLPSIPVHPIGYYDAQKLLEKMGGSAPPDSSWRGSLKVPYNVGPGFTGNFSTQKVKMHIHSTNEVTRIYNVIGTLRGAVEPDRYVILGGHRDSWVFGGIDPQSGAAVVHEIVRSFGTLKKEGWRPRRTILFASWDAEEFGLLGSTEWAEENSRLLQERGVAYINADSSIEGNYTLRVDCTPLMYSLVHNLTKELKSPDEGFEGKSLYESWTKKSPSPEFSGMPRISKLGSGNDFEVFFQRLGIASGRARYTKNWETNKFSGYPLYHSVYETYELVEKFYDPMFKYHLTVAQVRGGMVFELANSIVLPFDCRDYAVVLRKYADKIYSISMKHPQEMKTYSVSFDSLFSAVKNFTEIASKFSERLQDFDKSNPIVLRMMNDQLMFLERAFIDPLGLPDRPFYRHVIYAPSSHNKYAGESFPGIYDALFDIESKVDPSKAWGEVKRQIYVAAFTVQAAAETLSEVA
# [3] = Toxicity in balb-C laboratory mice; format: in vivo; conditions: dose of 40 mg/kg
# LNCaP-induced tumors = assay: Biodistribution assays in nude mice with LNCaP-induced tumors; format: in vivo
# [4] = Biokinetics and dosimetry in healthy subjects (whole-body images, OLINDA/EXM); format: in vivo, human
# Method: To determine the biokinetics and dosimetry for the radiopharmaceutical, whole-body images were acquired for five healthy subjects at 20 mins and 6, 24, 48 and 120 h post-administration of ^177Lu-DOTA-HYNIC-iPSMA (185 MBq). The sequence of images was used to extrapolate the time-activity curves in each organ to adjust the biokinetic model and calculate the total number of disintegrations (N) that occurred in the source regions. The values of N were used in the OLINDA/EXM code to calculate the internal doses of radiation. […] Uptake and excretion is mainly renal, with lower hepatic uptake and high uptake in the […], salivary, and lachrymal glands. The average doses absorbed were 0.23, 0.28, 0.88, and 1.17 mGy/MBq for the spleen, liver, kidney, and salivary glands, respectively.
# [5] = test system: metastatic prostate cancer lesions; assay: Radiotherapeutic potential in prostate cancer patients (68Ga-PSMA-11 PET/CT and serum PSA); format: in vivo, human
# Method: To evaluate the radiotherapeutic potential, between one and four cycles of ^177Lu-DOTA-HYNIC-iPSMA (3.7 or 7.4 GBq) were administered to 11 patients (mean age: 66 years; range: 45-86) every 8-10 weeks. The response was evaluated using images with ^68Ga-PSMA-11 PET/CT (radiopharmaceutical with a proven affinity in clinical practice and a high-resolution technique for the specific detection of metastatic prostate cancer lesions) and determining serum prostate-specific antigen (PSA) levels before and after treatment.
# prostate cancer = conditions: clinical studies, literature; cited from earlier work
structure (smiles),measurement,setting,value
O=C(O)CCC(NC(=O)NC(CCCCNC(=O)C(Cc1ccc2ccccc2c1)NC(=O)c1ccc(NNC(=O)CN2CCN3CCN4CCN(CC2)CC(=O)[O][177Lu]([O]C(=O)C3)[O]C(=O)C4)nc1)C(=O)O)C(=O)O (centres unmarked) [177Lu-DOTA-HYNIC-iPSMA],radiochemical purity (stability post-labelling),[1],more than 98%
same,radiochemical stability,[2],more than 98%
same,serum protein binding,[2],6.5±1.8%
same,maximum number of binding sites (Bmax),protein PSMA,5.89 ± 0.47 nM
same,toxicity or adverse effects,[3],did not present toxicity or adverse effects
same,elimination pathway,LNCaP-induced tumors,mainly renal
same,"uptake in tumors, % of the activity administered per gram of tissue",LNCaP-induced tumors,9.74±1.13 % ID/g
same,"average dose absorbed, kidney","[4]; healthy subjects, kidney",0.88 mGy/MBq
same,"average dose absorbed, liver","[4]; healthy subjects, liver",0.28 mGy/MBq
same,"average dose absorbed, salivary glands","[4]; healthy subjects, salivary glands",1.17 mGy/MBq
same,"average dose absorbed, spleen","[4]; healthy subjects, spleen",0.23 mGy/MBq
same,uptake and excretion,[4]; healthy volunteers,mainly renal
same,"half life, second slow component (T1/2γ)","[4]; healthy volunteers, 185 MBq, ln 2/0.008",79.6 h
same,"half life, first slow component (T1/2β)","[4]; healthy volunteers, 185 MBq, ln 2/0.075",9.2 h
same,"half life, fast component (T1/2α)","[4]; healthy volunteers, 185 MBq, ln 2/0.614",1.1 h
same,patients exhibiting a reduction in PSA,"[5]; 11 patients, one to four cycles of 3.7 or 7.4 GBq every 8-10 weeks",Around 60%
same,"patients with a reduction in the number and size of metastatic lesions and/or uptake intensity, by imaging","[5]; 11 patients, one to four cycles of 3.7 or 7.4 GBq, 68Ga-PSMA-11 PET/CT",70%
same,metastatic lesion sites on 68Ga-PSMA-11 PET follow-up,"[5]; one patient, three cycles of treatment (FIG. 6)",decrease in size and number
O=C(O)CCC(NC(=O)NC(CCCCNC(=O)C(Cc1ccc2ccccc2c1)NC(=O)c1ccc(NNC(=O)CN2CCN3CCN4CCN(CC2)CC(=O)[O][Lu]([O]C(=O)C3)[O]C(=O)C4)nc1)C(=O)O)C(=O)O (centres unmarked) [177Lu-DOTA-HYNIC-iPSMA],Kd,protein PSMA,6.33 ± 2.69 nM
O=C([O-])CN1CCN(CC(=O)[O-])CCN(CC(=O)NCC2CCC(C(=O)N[C@@H](Cc3ccc4ccccc4c3)C(=O)NCCCC[C@H](NC(=O)N[C@@H](CCC(=O)O)C(=O)O)C(=O)O)CC2)CCN(CC(=O)[O-])CC1.[177Lu+3] (some centres unmarked) [Lu-PSMA-617],side-effects,prostate cancer,no severe side-effects

# From patent publication US12128114B2, “177Lu-DOTA-HYNIC-iPSMA as a therapeutic radiopharmaceutical targeting prostate-specific membrane antigen” (INSTITUTO NACIONAL DE INVESTIGACIONES NUCLEARES, priority 2018, dated 2024)
